According to the supplement of paper PMC11061612:

Experiments:
[1] = compound: COc1nnc2ccc(N3CCC(c4ccc(OCCN5CCN(C)C(=O)[C@H]5C)cc4)CC3)nn12 [AZD5153]; settings: max 1 µM
Method in brief: (§1)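 Cancer cell lines were plated in 1536-well plates in 7.5 μl of DMEM/F12 or RPMI with 10% FBS and kept 24 hours at 37°C and 5% CO2 before 72 hours of dosing, with final DMSO typically 0.2%. CellTiter-Glo 2.0 luminescence measured viability, scaled between blank-well and DMSO-well means. Dose responses were fitted to a two-parameter logistic curve with a non-linear mixed effects model. This fit gives the single-agent IC50.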

[2] = compound: CC(=O)Nc1cccc(-n2c(=O)n(C3CC3)c(=O)c3c(Nc4ccc(I)cc4F)n(C)c(=O)c(C)c32)c1 [Trametinib]; settings: max 1 µM
Method in brief: as §1

[3] = compound: CC1(C)CCC(CN2CCN(c3ccc(C(=O)NS(=O)(=O)c4ccc(NCC5CCOCC5)c([N+](=O)[O-])c4)c(Oc4cnc5[nH]ccc5c4)c3)CC2)=C(c2ccc(Cl)cc2)C1 [Venetoclax]; settings: max 1 µM
Method in brief: as §1

[4] = compound: CC1=CN2[C@@H](C1)C=NC3=CC(=C(C=C3C2=O)OC)OCCCCCOC4=C(C=C5C(=C4)N=C[C@@H]6CC(=CN6C5=O)C)OC [SG3199]; settings: max 0.001 µM
Method in brief: as §1

[5] = compound: Cc1c2c(nn1C)CSCc1cc(n(C)n1)CSc1cc(c3ccccc3c1)OCCCc1c(C(=O)O)n(C)c3c-2c(Cl)ccc13 [AZD5991]; settings: max 1 µM
Method in brief: as §1

[6] = compound: COc1cc(Nc2ncc3c(n2)-c2ccc(Cl)cc2C(c2c(F)cccc2OC)=NC3)ccc1C(=O)O [Alisertib]; settings: max 10 µM
Method in brief: as §1

[7] = compound: C[C@@H]1COCCN1C2=NC(=NC(=C2)C3(CC3)[S@](=N)(=O)C)C4=C5C=CNC5=NC=C4 [AZD6738]; settings: max 10 µM
Method in brief: as §1

[8] = compound: CCN(CCO)CCCOc1ccc2c(Nc3cc(CC(=O)Nc4cccc(F)c4)[nH]n3)ncnc2c1 [AZD2811]; settings: max 1 µM
Method in brief: as §1

[9] = compound: Cc1nc(-c2cn3c(n2)-c2ccc(-c4cnn(C(C)(C)C(N)=O)c4)cc2OCC3)n(C(C)C)n1 [Taselisib]; settings: max 10 µM
Method in brief: as §1

[10] = compound: CS(=O)(=O)CCNCc1ccc(-c2ccc3ncnc(Nc4ccc(OCc5cccc(F)c5)c(Cl)c4)c3c2)o1 [Lapatinib]; settings: max 10 µM
Method in brief: as §1

[11] = compound: CC(C)n1c(=O)n(C)c2cnc3cc(F)c(-c4ccc(OCCCN5CCCCC5)nc4)cc3c21 [AZD1390]; settings: max 0.3 µM
Method in brief: as §1

[12] = compound: COc1cccc2c1C(=O)c1c(O)c3c(c(O)c1C2=O)C[C@@](O)(C(=O)CO)C[C@@H]3O[C@H]1C[C@H](N)[C@H](O)[C@H](C)O1 [Doxorubicin]; settings: max 1 µM
Method in brief: as §1

[13] = compound: COc1cc2ncnc(Nc3ccc(F)c(Cl)c3)c2cc1OCCCN1CCOCC1 [Gefitinib]; settings: max 10 µM
Method in brief: as §1

[14] = compound: COc1cccc(OCCCN)c1-c1cc(Nc2cnc(C#N)cn2)n[nH]1 [Prexasertib]; settings: max 1 µM
Method in brief: as §1

[15] = compound: CN(C)CCCOc1ccc(-c2ccc3ncc4c(c3c2)n(C2CCOCC2)c(=O)n4C)cn1 [AZD0156]; settings: max 3 µM
Method in brief: as §1

[16] = compound: CC1=C(C(=CC=C1)Cl)NC(=O)C2=CN=C(S2)NC3=CC(=NC(=N3)C)N4CCN(CC4)CCO [Dasatinib]; settings: max 2 µM
Method in brief: as §1

[17] = compound: O=C(c1cc(Cc2n[nH]c(=O)c3ccccc23)ccc1F)N1CCN(C(=O)C2CC2)CC1 [Olaparib]; settings: max 10 µM
Method in brief: as §1

[18] = compound: Cn1cnc2c(F)c(Nc3ccc(Br)cc3Cl)c(C(=O)NOCCO)cc21 [Selumetinib]; settings: max 10 µM
Method in brief: as §1

[19] = compound: C1CN(CCC1(C(=O)N[C@@H](CCO)C2=CC=C(C=C2)Cl)N)C3=NC=NC4=C3C=CN4 [Capivasertib]; settings: max 10 µM
Method in brief: as §1

[20] = compound: CC(=O)c1c(C)c2cnc(Nc3ccc(N4CCNCC4)cn3)nc2n(C2CCCC2)c1=O [Palbociclib]; settings: max 10 µM
Method in brief: as §1

[21] = compound: Cc1cc2ncnn2cc1Nc1ncc2c(n1)n(C1CCOCC1)c(=O)n2C [AZD7648]; settings: max 10 µM
Method in brief: as §1

[22] = compound: C=CCn1c(=O)c2cnc(Nc3ccc(N4CCN(C)CC4)cc3)nc2n1-c1cccc(C(C)(C)O)n1 [AZD1775]; settings: max 3 µM
Method in brief: as §1

[23] = compound: CN(CC[C@H](CSC1=CC=CC=C1)NC2=C(C=C(C=C2)S(=O)(=O)NC(=O)C3=CC=C(C=C3)N4CCC(CC4)[C@H](C5=CC=CC=C5C6=CC=C(C=C6)Cl)O)S(=O)(=O)C(F)(F)F)CCO [AZD4320]; settings: max 1 µM
Method in brief: as §1

[24] = compound: C[C@@H](Oc1cc(-c2cnn(C3CCNCC3)c2)cnc1N)c1c(Cl)ccc(F)c1Cl [Crizotinib]; settings: max 10 µM
Method in brief: as §1

[25] = compound: CCc1c2c(nc3ccc(O)cc13)-c1cc3c(c(=O)n1C2)COC(=O)[C@]3(O)CC [SN-38]; settings: max 0.3 µM
Method in brief: as §1

[26] = compound: C[C@@H](Nc1cc(F)cc(F)c1)c1cc(C(=O)N(C)C)cc2c(=O)cc(N3CCOCC3)oc12 [AZD8186]
Method in brief: as §1

[27] = compound: C[C@@H](c1ccc2nccn2c1)n1nnc2ncc(-c3cnn(C)c3)nc21 [Savolitinib]; settings: max 1 µM
Method in brief: as §1

[28] = compound: C1CN(CCC1(C(=O)N[C@@H](CCO)C2=CC=C(C=C2)Cl)N)C3=NC=NC4=C3C=CN4 [AZD5363]; settings: max 10 µM
Method in brief: as §1

[29] = compound: CC(=O)O[C@H]1C(=O)[C@@]2(C)[C@H]([C@H](OC(=O)c3ccccc3)[C@]3(O)C[C@H](OC(=O)[C@H](O)[C@@H](NC(=O)c4ccccc4)c4ccccc4)C(C)=C1C3(C)C)[C@]1(OC(C)=O)CO[C@@H]1C[C@@H]2O [Paclitaxel]; settings: max 3 µM
Method in brief: as §1

[30] = compound: N#Cc1cnc(Nc2cc(NC[C@H]3CNCCO3)c(C(F)(F)F)cn2)cn1 [SRA737]; settings: max 10 µM
Method in brief: as §1

[31] = compound: C1CC(C1)(C(=O)[O-])C(=O)[O-].N.N.[Pt+2] [Carboplatin]; settings: max 10 µM
Method in brief: as §1

[32] = compound: COc1cc([C@@H]2c3cc4c(cc3[C@@H](O[C@@H]3O[C@@H]5CO[C@@H](C)O[C@H]5[C@H](O)[C@H]3O)[C@H]3COC(=O)[C@H]23)OCO4)cc(OC)c1O [Etoposide]; settings: max 10 µM
Method in brief: as §1

[33] = compound: O=c1[nH]cc(F)c(=O)[nH]1 [5-Fluorouracil]; settings: max 20 µM
Method in brief: as §1

[34] = compound: Nc1ccn([C@@H]2O[C@H](CO)[C@@H](O)C2(F)F)c(=O)n1 [Gemcitabine]; settings: max 0.3 µM
Method in brief: as §1

[35] = compound: O=C(Nc1ccc2[nH]nc(-c3ccncc3)c2c1)[C@@H]1CCN(CC(=O)N2CCN(c3ccc(-c4ncccn4)cc3)CC2)C1; settings: max 5 µM
Method in brief: as §1

[36] = compound: NC1(c2ccc(-c3nc4ccn5c(=O)[nH]nc5c4cc3-c3ccccc3)cc2)CCC1 [MK-2206]; settings: max 10 µM
Method in brief: as §1

Row | Cell Line | IC50, cell viability 72 h [1] [µM] | IC50, cell viability 72 h [2] [µM] | IC50, cell viability 72 h [3] [µM] | IC50, cell viability 72 h [4] [µM] | IC50, cell viability 72 h [5] [µM] | IC50, cell viability 72 h [6] [µM] | IC50, cell viability 72 h [7] [µM] | IC50, cell viability 72 h [8] [µM] | IC50, cell viability 72 h [9] [µM] | IC50, cell viability 72 h [10] [µM] | IC50, cell viability 72 h [11] [µM] | IC50, cell viability 72 h [12] [µM] | IC50, cell viability 72 h [13] [µM] | IC50, cell viability 72 h [14] [µM] | IC50, cell viability 72 h [15] [µM] | IC50, cell viability 72 h [16] [µM] | IC50, cell viability 72 h [17] [µM] | IC50, cell viability 72 h [18] [µM] | IC50, cell viability 72 h [19] [µM] | IC50, cell viability 72 h [20] [µM] | IC50, cell viability 72 h [21] [µM] | IC50, cell viability 72 h [22] [µM] | IC50, cell viability 72 h [23] [µM] | IC50, cell viability 72 h [24] [µM] | IC50, cell viability 72 h [25] [µM] | IC50, cell viability 72 h ([26]; max 3 µM) [µM] | IC50, cell viability 72 h [27] [µM] | IC50, cell viability 72 h [28] [µM] | IC50, cell viability 72 h [29] [µM] | IC50, cell viability 72 h [30] [µM] | IC50, cell viability 72 h [31] [µM] | IC50, cell viability 72 h [32] [µM] | IC50, cell viability 72 h [33] [µM] | IC50, cell viability 72 h [34] [µM] | IC50, cell viability 72 h [35] [µM] | IC50, cell viability 72 h [36] [µM] | IC50, cell viability 72 h ([26]; max 10 µM) [µM]
1 | 647-V (Bladder Carcinoma) | > 1 | > 1 | > 1 | > 0.001 | 0.961 | > 10 | > 10 | > 1 | > 10 | > 10 | > 0.3 | 0.24 | > 10 | 0.174 | > 3 | > 2 | > 10 | > 10 | > 10 | > 10 | > 10 | 0.812 | > 1 | > 10 | 0.00235 | > 3 | > 1 | – | – | – | – | – | – | – | – | – | –
2 | GDM-1 (Acute Myeloid Leukemia) | 0.0648 | > 1 | 0.392 | > 0.001 | > 1 | 0.123 | 7.15 | 0.0656 | 0.121 | > 10 | > 0.3 | 0.326 | > 10 | 0.0402 | > 3 | 0.00937 | > 10 | > 10 | 8.68 | 8.09 | 5.19 | 0.435 | 0.0834 | 1.16 | 0.00415 | 1.94 | > 1 | – | – | – | – | – | – | – | – | – | –
3 | HCT-116 (Colorectal Carcinoma) | 0.244 | 0.0163 | > 1 | > 0.001 | > 1 | 1.07 | 6.97 | > 1 | 2.17 | > 10 | > 0.3 | 0.218 | > 10 | 0.635 | > 3 | > 2 | > 10 | 2.5 | – | 8.69 | > 10 | 1.96 | > 1 | 2.76 | 0.019 | – | > 1 | > 10 | 0.00324 | > 10 | > 10 | 5.46 | 10.6 | 0.0131 | 0.129 | > 10 | > 10
